Reference: ChEMBL document CHEMBL3853265 (Medchemcomm, 2016)

Key:
[1] = Average plasma concentration in Wistar Han rat at 100 mg/kg, po administered as single dose measured on day 14; assay type: ADME, organism-based; conditions: in vivo
Rattus norvegicus [2] = test: Toxicity in Wistar Han rat assessed as centrilobular hepatocellular hypertrophy at 100 mg/kg/day, po administered for 14 days; assay type: organism-based; conditions: in vivo, 336 h
Rattus norvegicus [3] = test: Toxicity in Wistar Han rat assessed as moribundity at 300 mg/kg, po administered as single dose; assay type: organism-based; conditions: in vivo
[4] = Unbound Cmax in Wistar Han rat at 100 mg/kg, po […] measured on day 14; assay type: ADME, organism-based; conditions: in vivo
[5] = Unbound clearance in dog at 1 mg/kg, iv and 3 mg/kg, po; assay type: ADME, organism-based, Canis lupus familiaris; conditions: in vivo
Rattus norvegicus [6] = test: Toxicity in Wistar Han rat assessed as increase in liver weight at >= 30 mg/kg/day, po administered for 14 days; assay type: organism-based; conditions: in vivo, 336 h
[7] = Volume of distribution at steady state in dog at 0.363 mg/kg, iv and 0.737 mg/kg, po; assay type: ADME, organism-based, Canis lupus familiaris; conditions: in vivo, read-out: Vdss
[8] = Unbound Cmax in Wistar Han rat at 10 mg/kg, po […] measured on day 14; assay type: ADME, organism-based; conditions: in vivo
[9] = Drug metabolism in human hepatocytes assessed as monooxidation; assay type: ADME, cell-based, Hepatocyte
CYP2C9 = CYP2C9 (Homo sapiens, UniProt P11712); test: Inhibition of CYP2C9 (unknown origin) at 3 uM relative to control; assay type: ADME
CYP2C9, sequence (P11712 whole entry): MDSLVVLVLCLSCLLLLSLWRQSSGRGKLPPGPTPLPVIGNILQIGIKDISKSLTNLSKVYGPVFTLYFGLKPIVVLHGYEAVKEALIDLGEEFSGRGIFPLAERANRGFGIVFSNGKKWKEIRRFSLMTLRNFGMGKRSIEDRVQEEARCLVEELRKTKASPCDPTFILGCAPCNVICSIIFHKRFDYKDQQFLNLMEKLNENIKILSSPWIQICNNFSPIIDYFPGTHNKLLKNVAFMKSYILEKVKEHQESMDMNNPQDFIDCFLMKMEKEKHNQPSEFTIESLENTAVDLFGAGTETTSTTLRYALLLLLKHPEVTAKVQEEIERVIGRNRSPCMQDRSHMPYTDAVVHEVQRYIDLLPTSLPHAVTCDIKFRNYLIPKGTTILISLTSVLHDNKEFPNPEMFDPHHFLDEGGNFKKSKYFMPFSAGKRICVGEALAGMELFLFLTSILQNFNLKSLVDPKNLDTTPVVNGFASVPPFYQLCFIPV

[10] = Toxicity in dog assessed as increase in body temperature at 10 mg/kg, po administered as single dose; assay type: organism-based, Canis lupus familiaris; conditions: in vivo
Cytochrome P450 1A2 = target: T1, Cytochrome P450 1A2 (Homo sapiens, UniProt P05177); test: Inhibition of CYP1A2 (unknown origin); assay type: ADME
T1 sequence (P05177 whole entry): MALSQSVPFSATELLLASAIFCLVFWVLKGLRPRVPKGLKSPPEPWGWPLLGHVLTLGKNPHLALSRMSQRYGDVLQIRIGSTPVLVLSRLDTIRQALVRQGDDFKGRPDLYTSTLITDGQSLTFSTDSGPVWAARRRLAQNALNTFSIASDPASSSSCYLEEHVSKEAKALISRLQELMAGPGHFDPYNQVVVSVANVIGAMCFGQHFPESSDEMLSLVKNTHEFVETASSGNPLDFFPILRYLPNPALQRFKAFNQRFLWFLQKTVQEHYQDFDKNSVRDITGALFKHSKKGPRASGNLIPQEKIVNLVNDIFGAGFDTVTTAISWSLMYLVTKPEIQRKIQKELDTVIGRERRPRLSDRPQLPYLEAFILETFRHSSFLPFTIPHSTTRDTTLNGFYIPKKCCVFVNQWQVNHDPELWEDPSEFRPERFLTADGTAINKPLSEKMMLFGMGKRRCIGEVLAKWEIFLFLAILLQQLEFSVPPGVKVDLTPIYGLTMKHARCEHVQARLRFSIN

Cytochrome P450 2D6 = Cytochrome P450 2D6 (Homo sapiens, UniProt P10635); test: Inhibition of CYP2D6 (unknown origin); assay type: ADME
Cytochrome P450 2D6, sequence (P10635 whole entry): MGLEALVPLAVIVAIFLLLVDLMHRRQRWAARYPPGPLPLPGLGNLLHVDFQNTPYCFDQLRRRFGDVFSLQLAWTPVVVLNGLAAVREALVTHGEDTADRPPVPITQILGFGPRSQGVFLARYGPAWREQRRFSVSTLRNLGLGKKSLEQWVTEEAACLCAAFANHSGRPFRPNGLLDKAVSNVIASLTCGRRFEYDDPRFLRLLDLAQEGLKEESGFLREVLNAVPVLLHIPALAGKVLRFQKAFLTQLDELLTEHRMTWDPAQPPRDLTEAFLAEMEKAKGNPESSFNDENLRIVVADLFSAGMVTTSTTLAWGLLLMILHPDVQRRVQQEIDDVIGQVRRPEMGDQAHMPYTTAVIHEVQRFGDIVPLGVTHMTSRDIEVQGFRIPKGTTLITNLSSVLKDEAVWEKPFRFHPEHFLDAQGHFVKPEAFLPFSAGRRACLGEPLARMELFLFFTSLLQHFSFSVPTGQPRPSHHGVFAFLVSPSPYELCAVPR

[11] = Drug metabolism in human hepatocytes assessed as monooxidation and glucuronidation; assay type: ADME, cell-based, Hepatocyte
[12] = Unbound Cmax in dog at 10 mg/kg, po administered as single dose; assay type: ADME, organism-based, Canis lupus familiaris; conditions: in vivo
[13] = Unbound clearance in dog at 0.363 mg/kg, iv and 0.737 mg/kg, po; assay type: ADME, organism-based, Canis lupus familiaris; conditions: in vivo
Cytochrome P450 3A4 = Cytochrome P450 3A4 (Homo sapiens, UniProt P08684); test: Inhibition of CYP3A4 (unknown origin); assay type: ADME
Cytochrome P450 3A4, sequence (P08684 whole entry): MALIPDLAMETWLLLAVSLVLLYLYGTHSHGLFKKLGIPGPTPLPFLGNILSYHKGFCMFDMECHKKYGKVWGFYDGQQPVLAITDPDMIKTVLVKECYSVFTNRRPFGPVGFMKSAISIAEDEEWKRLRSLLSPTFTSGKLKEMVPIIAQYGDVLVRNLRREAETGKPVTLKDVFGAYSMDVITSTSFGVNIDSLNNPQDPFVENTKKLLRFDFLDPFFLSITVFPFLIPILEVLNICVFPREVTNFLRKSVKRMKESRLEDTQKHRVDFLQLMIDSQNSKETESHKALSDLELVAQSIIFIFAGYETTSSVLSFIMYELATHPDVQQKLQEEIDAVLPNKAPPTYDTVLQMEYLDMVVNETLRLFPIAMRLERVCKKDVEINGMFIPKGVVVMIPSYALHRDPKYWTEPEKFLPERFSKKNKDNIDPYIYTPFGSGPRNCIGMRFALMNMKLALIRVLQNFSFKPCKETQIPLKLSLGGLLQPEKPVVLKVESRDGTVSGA

[14] = Drug metabolism in human liver microsomes assessed as monooxidation at phenyl and pyridine moieties; assay type: ADME
[15] = Toxicity in dog assessed as uncontrollable panting at 30 mg/kg, po administered as single dose; assay type: organism-based, Canis lupus familiaris; conditions: in vivo
[16] = Toxicity in po dosed dog administered as single dose; assay type: organism-based, Canis lupus familiaris; conditions: in vivo
[17] = Drug metabolism in rat hepatocytes assessed as monooxidation; assay type: ADME, cell-based, Hepatocyte
[18] = Drug metabolism in dog liver microsomes; assay type: ADME, Canis lupus familiaris
[19] = Toxicity in dog assessed as increase in heart rate at 30 mg/kg, po administered as single dose; assay type: organism-based, Canis lupus familiaris; conditions: in vivo
[20] = Plasma clearance in dog at 0.363 mg/kg, iv and 0.737 mg/kg, po; assay type: ADME, organism-based, Canis lupus familiaris
[21] = Unbound Cmax in dog at 30 mg/kg, po administered as single dose; assay type: ADME, organism-based, Canis lupus familiaris; conditions: in vivo
Rattus norvegicus [22] = test: Toxicity in Wistar Han rat assessed as centrilobular hepatocyte hypertrophy at 100 mg/kg/day, po administered for 14 days; assay type: organism-based; conditions: hepatocytes, 336 h
[23] = Toxicity in dog assessed as appearance of red mucous membranes of the gum at 30 mg/kg, po administered as single dose; assay type: organism-based, Canis lupus familiaris; conditions: in vivo

O=S(=O)(Nc1cncc(C(F)(F)F)c1)c1ccccc1C(F)(F)F
Cave [1]: 807 nM | Activity (Rattus norvegicus [2]): Non-Toxic | Activity (Rattus norvegicus [3]): Toxic | fCmax [4]: 2153 nM | CL free [5]: 17.5 mL/min/kg

O=S(=O)(Nc1ccc(C(F)(F)F)nc1)c1ccccc1C(F)(F)F
Activity (Rattus norvegicus [6]): Non-Toxic | Vd [7]: 0.12 L/kg | fCmax [8]: 530 nM | Drug metabolism [9]: Metabolite_Detected | inhibition at 3 µM (CYP2C9): 24% | deltaT [10]: < 0.4 °C | IC50 (Cytochrome P450 1A2): > 30 µM | IC50 (Cytochrome P450 2D6): > 30 µM | Drug metabolism [11]: Metabolite_Detected | fCmax [12]: 1498 nM | CL free [13]: 1.4 mL/min/kg | IC50 (Cytochrome P450 3A4): > 30 µM | Drug metabolism [14]: Metabolite_Detected | Activity [15]: Toxic | MTD [16]: 100 mg/kg | Drug metabolism [17]: Metabolite_Detected | Drug metabolism [18]: Metabolite_Notdetected | Activity [19]: Toxic | clearance [20]: 0.014 mL/min/kg | fCmax [21]: 3.754 µM | Activity (Rattus norvegicus [22]): Non-Toxic | Activity [23]: Toxic
